This is an account of results in patent US11753408B2, “Compounds and method for blocking transmission of malarial parasite” (The United States of America, as represented by the …, priority 2016, dated 2023).

In general, pEC50 refers to the negative decadic logarithm of the EC50, by convention in mol/L.

Data set [1] has as its system Stage III-V gametocytes (blood stage P. falciparum parasites). Briefly: In vitro drug activity on gametocytes (AlamarBlue viability assay). It counts as cell-based, Plasmodium falciparum. Particulars: read-out: Gametocyte EC50. Summed up: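 P. falciparum 3D7 stage III–V gametocytes (also HB3, Dd2), enriched by 50 mM N-acetylglucosamine and Percoll gradient, seeded at 20,000/well with compound for 72 h at 37° C, 5% CO2. AlamarBlue then added for 24 h; viability read as fluorescence (Ex 525, Em 598 nm).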
Background: The colour change of resazurin is a common sign of viable cells or microbes.

For data set [2], the system named is Asexual parasites of P. falciparum strain 3D7. Briefly: In vitro drug activity on asexual parasites (SYBR Green assay). It counts as cell-based, Plasmodium falciparum. Summed up:
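3D7 parasites at 0.5% parasitemia and 2% hematocrit were exposed to drugs (DMSO ≤0.5%) for 72 h under standard culture conditions, in duplicate. After freeze-thaw lysis, SYBR Green I lysis buffer was added for 30 min at room temperature, and fluorescence was read at 490/520 nm.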

A further data set addresses mTOR (Homo sapiens, UniProt P42345). Briefly: mTOR activity (no method described). The data set is classed as biochemical.
The nature of data set [3]: Microsomal stability (rat). It counts as in vitro ADME. The settings on record: rat microsomes.
A short description of a further data set: Solubility at pH 7.4. The data set is classed as physicochemical.
A further data set is described as follows: PAMPA permeability. It counts as in vitro ADME. Background: In PAMPA a lipid-coated filter parts donor from acceptor wells.

pEC50: −log10 of the molar value.

Turning to `Nc1ccc(-c2ccc3ncc4ccc(=O)n(-c5ccc(C(=O)N6CCOCC6)cc5)c4c3c2)cn1` [Compound 334], the negative-log EC50 (pEC50) in data set [1] was 7.70; in data set [2], 8.09. The mTOR at mTOR was found to be 88.72 nM. The “Microsomal Stability (rat) T1/2” value in data set [3] was above 30.0 min. Also, the “Sol @ pH 7.4” value in the data set “Solubility at pH 7.4” was 30 ug/mL. Besides, in the data set “PAMPA permeability”, the PAMPA Permeability stood at 14.9 ×10⁻⁶ cm/s.
As to `O=C(c1ccc(-n2c(=O)ccc3cnc4ccc(-c5ccc(CN6CCCC6)cc5)cc4c32)cc1)N1CCOCC1` [Compound 184], the pEC50 is 6.09 in data set [1] and 6.77 in data set [2]. Also, the mTOR at mTOR was determined as 18050 nM. In addition, the “Microsomal Stability (rat) T1/2” value in data set [3] is recorded as above 30 min. The “Sol @ pH 7.4” value in the data set “Solubility at pH 7.4” is reported as 56.1 ug/mL. The compound also had a PAMPA Permeability in the data set “PAMPA permeability” of 292 ×10⁻⁶ cm/s.
`Cn1c(=O)n(-c2cccc(C#N)c2)c2c3cc(-c4ccc(F)cc4)ccc3ncc21` [Compound 402]: the pEC50 in data set [1] was 6.46; in data set [2] it was 6.85. Besides, the mTOR on mTOR was 53210 nM. Besides, the “Microsomal Stability (rat) T1/2” value in data set [3] is above 30.0 min. In addition, the “Sol @ pH 7.4” value in the data set “Solubility at pH 7.4” was 1.9 ug/mL. This compound also had a PAMPA Permeability in “PAMPA permeability” of 223 ×10⁻⁶ cm/s.
For the compound `O=C(c1ccc(-n2c(=O)ccc3cnc4ccc(-c5ccc(F)cc5)cc4c32)cc1)N1CCOCC1` [Compound 107], the figures for the negative logarithm of the EC50 (pEC50) in data set [1] and in data set [2] were 7.18 and 7.49, respectively. At mTOR, the mTOR is recorded as 541.4 nM. For the same compound, the “Microsomal Stability (rat) T1/2” value in data set [3] was 6.9 min. For the same compound, the “Sol @ pH 7.4” value in the data set “Solubility at pH 7.4” is given as below 1.0 ug/mL. In “PAMPA permeability”, this compound gave a PAMPA Permeability of 10.1 ×10⁻⁶ cm/s.
With `O=C(NC1C2CNCC21)c1ccc(-n2c(=O)ccc3cnc4ccc(-c5ccc(Cl)cc5)cc4c32)cc1` (stereo not drawn) [Compound 172], the pEC50 in data set [1] was 6.69; in data set [2] it was 6.92. Besides, the mTOR on mTOR is listed as 967.8 nM. For the same compound, the “Microsomal Stability (rat) T1/2” value in data set [3] is on record as above 30.0 min. Also, in the data set “Solubility at pH 7.4”, the “Sol @ pH 7.4” value was 2.3 ug/mL. In addition, the PAMPA Permeability in the data set “PAMPA permeability” was determined as 12.3 ×10⁻⁶ cm/s.
In the case of `Nc1cccc(-c2ccc3ncc4ccc(=O)n(-c5ccc(C(=O)N6CCOCC6)cc5)c4c3c2)c1` [Compound 130], the negative logarithm of the EC50 (pEC50) in data set [1] was 7.14; in data set [2], 7.70. Also, the mTOR at mTOR is on record as 202.1 nM. Also, in data set [3], the “Microsomal Stability (rat) T1/2” value is recorded as above 30.0 min. The “Sol @ pH 7.4” value in the data set “Solubility at pH 7.4” is reported as 9.2 ug/mL. In addition, the PAMPA Permeability in “PAMPA permeability” is 467 ×10⁻⁶ cm/s.
Regarding `CNC(=O)c1ccc(-n2c(=O)ccc3cnc4ccc(-c5ccc(CN(C)C)cc5)cc4c32)cc1` [Compound 174], the negative logarithm of the EC50 (pEC50) in data set [1] is 6.58; in data set [2] it was 6.88. Moreover, the mTOR on mTOR amounted to 7636 nM. Further, the “Microsomal Stability (rat) T1/2” value in data set [3] is given as above 30.00 min. In “Solubility at pH 7.4”, the “Sol @ pH 7.4” value is recorded as above 68.00 ug/mL. This compound had a PAMPA Permeability in the data set “PAMPA permeability” of 49.9 ×10⁻⁶ cm/s.
Take `O=C(c1ccc(-n2c(=O)ccc3cnc4ccc(-c5ccc(Cl)cc5)cc4c32)cc1)N1CC2CCC(C1)O2` [Compound 138]: the negative-log EC50 (pEC50) in data set [1] was 6.56; in data set [2] it was 6.76. Further, the mTOR at mTOR is listed as 1278 nM. Besides, the “Microsomal Stability (rat) T1/2” value in data set [3] is reported as 4.8 min. The “Sol @ pH 7.4” value in “Solubility at pH 7.4” is below 1.0 ug/mL. This compound also gave a PAMPA Permeability in “PAMPA permeability” of 891 ×10⁻⁶ cm/s.
As for `O=C(c1ccc(-n2c(=O)ccc3cnc4ccc(-c5ccc(Cl)cc5)cc4c32)cc1C(F)(F)F)N1CCOCC1` [Compound 126], the negative logarithm of the EC50 (pEC50) in data set [1] was 6.93; in data set [2] it was 7.62. The mTOR at mTOR was determined as 372.4 nM. In addition, the “Microsomal Stability (rat) T1/2” value in data set [3] turned out to be 1.7 min. In addition, the “Sol @ pH 7.4” value in the data set “Solubility at pH 7.4” was below 1.0 ug/mL. Also, the PAMPA Permeability in “PAMPA permeability” was found to be 1240 ×10⁻⁶ cm/s.
